Measurements from the NIST ThermoML archive (doi:10.1016/j.jct.2018.09.012).

Legend:
[1] = for Normal melting temperature: Crystal; for vapor or sublimation pressure: Gas chromatography
[2] = Molar enthalpy of transition or fusion; conditions: Crystal; DSC

c1ccc2ccccc2c1 [naphthalene]
Conditions | Normal melting temperature [°C]
[1], DTA | 79.2

Conditions | Molar enthalpy of transition or fusion [kcal/mol]
[2] | 4.57

c1ccc2c(c1)oc1ccccc12 [dibenzo[bd]furan]
[1]
Conditions | vapor or sublimation pressure [kPa]
298.15 K, Metastable liquid | 0.0011
310 K, Metastable liquid | 0.0031
320 K, Metastable liquid | 0.007
330 K, Metastable liquid | 0.015
340 K, Metastable liquid | 0.03
350 K, Metastable liquid | 0.058
360 K, Liquid | 0.11
370 K, Liquid | 0.18
380 K, Liquid | 0.31
390 K, Liquid | 0.51
400 K, Liquid | 0.8
410 K, Liquid | 1.2
420 K, Liquid | 1.8
430 K, Liquid | 2.6
440 K, Liquid | 3.7
450 K, Liquid | 5.2

CC1COCc2cc3c(cc21)C(C)(C)C(C)C3(C)C (stereo not drawn) [Galaxolide]
[1], Metastable liquid
Conditions | vapor or sublimation pressure [kPa]
298.15 K | 2.6e-05
310 K | 9.9e-05
320 K | 0.00027
330 K | 0.00071
340 K | 0.0017
350 K | 0.0038
360 K | 0.0081
370 K | 0.016
380 K | 0.032
390 K | 0.058
400 K | 0.1
410 K | 0.16
420 K | 0.29
430 K | 0.46
440 K | 0.72
450 K | 1.1
460 K | 1.6
470 K | 2.4
480 K | 3.4
490 K | 4.8
500 K | 6.6

CC1(C)CCC[C@]2(C)[C@H]3CCO[C@]3(C)CC[C@@H]12 [(-)-Ambroxide]
[1]
Conditions | vapor or sublimation pressure [kPa]
298.15 K, Metastable liquid | 0.00012
310 K, Metastable liquid | 0.00039
320 K, Metastable liquid | 0.00096
330 K, Metastable liquid | 0.0023
340 K, Metastable liquid | 0.0049
350 K, Liquid | 0.01
360 K, Liquid | 0.02
370 K, Liquid | 0.038
380 K, Liquid | 0.069
390 K, Liquid | 0.12
400 K, Liquid | 0.2
410 K, Liquid | 0.32
420 K, Liquid | 0.51
430 K, Liquid | 0.77
440 K, Liquid | 1.1
450 K, Liquid | 1.7
460 K, Liquid | 2.4
470 K, Liquid | 3.4
480 K, Liquid | 4.7
490 K, Liquid | 6.3
500 K, Liquid | 8.4

[1]
Conditions | Normal melting temperature [°C]
DTA | 72.7
visual observation | 75.00

Conditions | Molar enthalpy of transition or fusion [kcal/mol]
[2] | 4.85
